Where “and” joins values, the source holds several entries; their conditions need not be identical. Identical values can stand only once. Entries after “also recorded” stand apart in the source; their conditions may differ. Like-named read-outs stand apart in the source and are kept apart here.
Legend:
[1] = Solubility in PBS (pH 7.4) and diluted HCl (pH 1.1) by HPLC; assay type: physicochemical
[2] = logD by shake flask method (octanol/PBS pH 7.4); assay type: physicochemical
Procedure: The logD value (distribution coefficient) of the compound was determined by means of the shake flask method, measuring the distribution of the solute in octanol and phosphate-buffered saline (PBS, pH 7.4). The concentration of ZED1227 in the immiscible solvents was determined by HPLC (vide supra). The stability in PBS (pH 7.4 or acidified to pH 5.0), in artificial gastric, and intestinal fluid was calculated as the percentage of residual parent compound after incubation for 24 h at 37 °C, using an initial concentration of 100 μM.

[3] = target: T1, hFXIII-A2 (Homo sapiens, UniProt P00488); experiment: Fluorescent transamidation assay (DCC-assay), hFXIII-A2; assay type: biochemical
T1 construct: purchased Zedira T027
T1 sequence (P00488 39-732 limits assumed): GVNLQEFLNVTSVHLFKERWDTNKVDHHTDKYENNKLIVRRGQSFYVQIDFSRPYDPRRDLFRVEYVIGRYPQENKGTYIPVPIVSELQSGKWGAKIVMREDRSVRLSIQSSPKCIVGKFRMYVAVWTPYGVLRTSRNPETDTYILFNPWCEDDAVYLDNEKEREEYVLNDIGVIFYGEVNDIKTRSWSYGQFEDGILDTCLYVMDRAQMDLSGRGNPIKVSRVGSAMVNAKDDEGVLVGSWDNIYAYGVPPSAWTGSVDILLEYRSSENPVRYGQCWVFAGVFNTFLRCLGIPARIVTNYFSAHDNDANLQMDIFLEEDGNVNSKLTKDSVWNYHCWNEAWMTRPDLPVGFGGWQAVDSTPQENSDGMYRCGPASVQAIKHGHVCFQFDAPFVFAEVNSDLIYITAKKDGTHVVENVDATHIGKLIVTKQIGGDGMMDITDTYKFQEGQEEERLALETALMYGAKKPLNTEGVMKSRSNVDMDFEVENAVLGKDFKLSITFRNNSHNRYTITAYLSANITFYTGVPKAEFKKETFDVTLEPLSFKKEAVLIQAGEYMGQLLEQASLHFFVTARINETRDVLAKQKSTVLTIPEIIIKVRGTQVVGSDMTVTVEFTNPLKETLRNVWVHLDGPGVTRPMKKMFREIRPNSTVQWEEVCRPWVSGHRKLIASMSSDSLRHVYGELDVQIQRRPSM

[4] = Reactivity towards thiols (excess glutathione); assay type: physicochemical; conditions: 160-fold excess GSH, 25 °C, after 48 h
Procedure: To exclude undesired reactions of ZED1227 with biological thiols, an investigation was performed with the tripeptide glutathione (GSH) as a surrogate. ZED1227 (60 μM) was incubated with a 160-fold excess of glutathione (10,000 μM) in aqueous media [containing 7% (v/v) tetrahydrofuran and 13% (v/v) methanol] at ambient temperature (25 °C). The parent compound and the GSH-adduct formed after 48 h were determined by HPLC (vide supra).

[5] = system: adult patients with well-controlled celiac disease; design: method as in PMID 34192430; conditions: cited from earlier work

In the case of `CCC(CC)CNC(=O)Cn1cccc(NC(=O)[C@H](CC/C=C/C(=O)OC)NC(=O)c2cncn2C)c1=O` [ZED1227, (S,E)-Methyl 7-(1-(2-(2-ethylbutylamino)-2-oxoethyl)-2-oxo-1,2-dihydropyridin-3-ylamino)-6-(1-methyl-1H-imidazole-5-carboxamido)-7-oxohept-2-enoate], the solubility ([1]; phosphate-buffered saline, aqueous buffer, PBS pH 7.4, read-out: Solubility at pH 7.4) is reported as 100 µM and 50 µg/mL, the solubility ([1]; simulated gastric fluid, diluted HCl pH 1.1, read-out: Solubility at pH 1.1) is reported as 48900 µM and 25900 µg/mL and the logD [2] is reported as 2. For the same compound, the “Selectivity hFXIII-A2 versus hTG2” value ([3]; ratio of app. IC50 values) was >900 fold, the IC50 ([3]; recombinant, thrombin activated, transamidation assay, read-out: App. IC50 hFXIII-A2) was > 50 µM and the “Reactivity towards excess glutathione: parent drug compound recovery” value ([4]; 60 μM compound) was 98% parent drug compound recovery (after 48 h). For the same compound, the Glutathione-adduct formed [4] was 2%, the “Effect on gluten-induced duodenal mucosal injury, phase 2a” value ([5]; 6-week treatment, 10, 50, 100 mg oral, 3 g daily gluten challenge) was “protect celiac patients from gluten-induced mucosal injury; also recorded: all dose levels attenuated gluten-induced duodenal mucosal injury; also recorded: protected celiac patients from mucosal damage” and the “Tolerability in gluten challenge study” value ([5]; celiac patients, gluten challenge) was “well-tolerated”.
